Where two headings read alike, the source gives them in different places.
Experiment: Urinary excretion of GA and PCA after oral RLQ in healthy subjects
Format: in vivo, human
Conditions: for fraction unbound / dose excreted: human, urine, oral, 8 g; for fraction unbound: urine within 24 h, read-out: Fu (fraction of administered dose excreted in the urine); for dose excreted: abstract summary, read-out: 24 h urine recovery rate
Method: In the single-dose study, 8 g of RLQ was administered orally on day 1. A 7-d washout time was designed between single-dose and multiple-dose pharmacokinetic studies. In the multiple-dose study, subjects received multiple doses of RLQ (8 g, t.i.d.) for seven consecutive days from day 8 to day 14 and a single dose of RLQ (8 g) on the morning of day 15. On days 1 and 15, blood samples (3 mL) were collected from the antecubital vein catheter before drug administration and at 0.08, 0.17, 0.33, 0.5, 0.75, 1, 1.5, 2, 3, 4, 6, 8, 12 and 24 h after dosing. Additional pre-dose samples were collected in the morning on days 12, 13 and 14. Urine samples were collected over a 12 h interval before dosing and at the following time intervals thereafter: 0–2, 2–5, 5–8, 8–12 and 12–24 h. All samples were stored at −80 °C until analysis.
All analytes were extracted from plasma and urine samples by simple protein precipitation extraction method using acetonitrile. Briefly, 5 µL of internal standard solution and 300 μL of acetonitrile were added to the spiked blank matrix (100 μL) and vortexed for 3 min and then centrifuged at 13,000 × g for 10 min. The supernatant was transferred and dried using a flow of nitrogen. The residue was re-dissolved in 100 µL of 10% methanol solution containing 0.1% formic acid. An aliquot of 5 µL solution was injected into the LC-MS/MS system for analysis.
The GA and PCA concentrations were determined using a validated LC-MS/MS method with some modifications (Ma et al. [2015]). The chromatographic separation was performed on an Acquity Ultra Performance LC instrument (Waters, Milford, MA) with a gradient programme in an ACQUITY UPLC BEH C18 column (2.1 mm × 100 mm, 1.7 μm). The gradient programme was performed with the mobile phase (0.3 mL/min) consisting of 0.1% formic acid aqueous solution (A) and acetonitrile (B) as follows: 97% A (0–8.5 min), 60% A (8.7–11 min), 10% A (11.5–13.5 min) and 97% A (14–15 min). The injection volume was 2 µL. The mass spectrometry analysis was performed on an AB Sciex Triple Quad 5500 MS (Framingham, MA) equipped with an ESI source. The quantitative analyses of GA, PCA and chloramphenicol were performed in a negative mode by multiple reaction monitoring (MRM) with the ion transitions of m/z 169.0→125.1, 153.1→109.0 and 321.1→152.1, respectively.
Pharmacokinetic parameters of GA and PCA were estimated with a non-compartmental method using Phoenix WinNonlin version 6.4 (Certara, Princeton, NJ). The peak plasma concentration (Cmax) and time to reach the peak plasma concentration (Tmax) were calculated from the actual plasma concentration data. The area under the plasma concentration-time curve from zero to the last measurable concentration (AUC0–t) was calculated via the linear trapezoidal rule. AUC0–∞ was calculated using the following formula: AUC0–∞ = AUC0–t + Ct/ke, where Ct is the last plasma concentration measured. The terminal elimination half-life (t1/2) was calculated as 0.693/ke, and the total clearance (CL/F) was calculated as dose/AUC0–∞. The accumulation index was calculated as AUCss/AUC0–t.

Row | SMILES | fraction unbound (multiple dose RLQ 8 g) | fraction unbound (single dose RLQ 8 g) | dose excreted [%] | amount recovered in urine within 24 h (single dose RLQ 8 g) [mg] | mean urinary concentration (first 2 h after administration of RLQ 8 g) [µg/L]
1 | O=C(O)c1cc(O)c(O)c(O)c1 [GA, gallic acid] | 0.107 | ~0.086 | ~10 | 2.48 ± 1.34 | 
2 | O=C(O)c1ccc(O)c(O)c1 [PCA, protocatechuic acid] |  | ~0.042 | ~5 | 0.046 ± 0.040 | ~150
